Measured values as given in PubChem BioAssay AID1918942 (Molecular Pharmacology Branch, DTP, NCI, 2023).

Tested on: 743489-274-T-PDC complex spheroid viability
Experiment: Anticancer human tumor 743489-274-T-PDC patient-derived renal cell carcinoma cell line growth inhibition
Conditions: for IC50: curve of first compound; for viability, T/C: stronger effect = lower value
In short: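 Drug combinations with the LSD1 inhibitor iadademstat tested on tumor cells co-cultured as spheroids with endothelial cells and mesenchymal stem cells. Concentrations descended in half-log increments from clinical Cmax or 10 microM.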

[1] = second compound 0.1 µM, first compound 0.000316 µM
[2] = second compound 0.1 µM, first compound 0.001 µM
[3] = second compound 0.1 µM, first compound 0.00316 µM
[4] = second compound 0.1 µM, first compound 0.01 µM
[5] = second compound 0.1 µM, first compound 0.0316 µM
[6] = second compound 0.1 µM, first compound 0.1 µM
[7] = second compound 0.316 µM, first compound 0.000316 µM
[8] = second compound 0.316 µM, first compound 0.001 µM
[9] = second compound 0.316 µM, first compound 0.00316 µM
[10] = second compound 0.316 µM, first compound 0.01 µM
[11] = second compound 0.316 µM, first compound 0.0316 µM
[12] = second compound 0.316 µM, first compound 0.1 µM
[13] = second compound 1 µM, first compound 0.000316 µM
[14] = second compound 1 µM, first compound 0.001 µM
[15] = second compound 1 µM, first compound 0.00316 µM
[16] = second compound 1 µM, first compound 0.01 µM
[17] = second compound 1 µM, first compound 0.0316 µM
[18] = second compound 1 µM, first compound 0.1 µM
[19] = second compound 3.16 µM, first compound 0.000316 µM
[20] = second compound 3.16 µM, first compound 0.001 µM
[21] = second compound 3.16 µM, first compound 0.00316 µM
[22] = second compound 3.16 µM, first compound 0.01 µM
[23] = second compound 3.16 µM, first compound 0.0316 µM
[24] = second compound 3.16 µM, first compound 0.1 µM
[25] = second compound 10 µM, first compound 0.000316 µM
[26] = second compound 10 µM, first compound 0.001 µM
[27] = second compound 10 µM, first compound 0.00316 µM
[28] = second compound 10 µM, first compound 0.01 µM
[29] = second compound 10 µM, first compound 0.0316 µM
[30] = second compound 10 µM, first compound 0.1 µM
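Also: spheroids exposed to compounds for 7 days before readout.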
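For viability, T/C in this document: 100% = DMSO vehicle control wells.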

Compound: CC(C)CC(NC(=O)C(Cc1ccccc1)NC(=O)c1cnccn1)B(O)O (stereo not given) + NC1CCC(NC2CC2c2ccccc2)CC1
- IC50 (second compound 0.1 µM): 0.00765 µM
- IC50 (second compound 0.316 µM): 0.0079 µM
- IC50 (second compound 1 µM): 0.00738 µM
- IC50 (second compound 3.16 µM): 0.00858 µM
- IC50 (second compound 10 µM): 0.00822 µM
- viability, T/C [1]: 115%
- viability, T/C [2]: 100%
- viability, T/C [3]: 121%
- viability, T/C [4]: 33.7%
- viability, T/C [5]: 29.6%
- viability, T/C [6]: 30.3%
- viability, T/C [7]: 119%
- viability, T/C [8]: 109%
- viability, T/C [9]: 115%
- viability, T/C [10]: 33.4%
- viability, T/C [11]: 19.1%
- viability, T/C [12]: 26.7%
- viability, T/C [13]: 100%
- viability, T/C [14]: 108%
- viability, T/C [15]: 113%
- viability, T/C [16]: 36.8%
- viability, T/C [17]: 23.7%
- viability, T/C [18]: 28.1%
- viability, T/C [19]: 122%
- viability, T/C [20]: 103%
- viability, T/C [21]: 113%
- viability, T/C [22]: 40.3%
- viability, T/C [23]: 22.3%
- viability, T/C [24]: 38.3%
- viability, T/C [25]: 117%
- viability, T/C [26]: 119%
- viability, T/C [27]: 123%
- viability, T/C [28]: 35.8%
- viability, T/C [29]: 22.1%
- viability, T/C [30]: 35.5%

Compound: CC(C)CC(NC(=O)CNC(=O)c1cc(Cl)ccc1Cl)B1OC(=O)CC(CC(=O)O)(C(=O)O)O1 (stereo not given) + NC1CCC(NC2CC2c2ccccc2)CC1
- IC50 (second compound 0.1 µM): > 0.1 µM
- IC50 (second compound 0.316 µM): 0.0925 µM
- IC50 (second compound 1 µM): > 0.1 µM
- IC50 (second compound 3.16 µM): > 0.1 µM
- IC50 (second compound 10 µM): 0.0865 µM
- viability, T/C [1]: 95.9%
- viability, T/C [2]: 105%
- viability, T/C [3]: 109%
- viability, T/C [4]: 80.4%
- viability, T/C [5]: 72.6%
- viability, T/C [6]: 60.7%
- viability, T/C [7]: 119%
- viability, T/C [8]: 123%
- viability, T/C [9]: 108%
- viability, T/C [10]: 80.5%
- viability, T/C [11]: 79.8%
- viability, T/C [12]: 46.6%
- viability, T/C [13]: 120%
- viability, T/C [14]: 120%
- viability, T/C [15]: 108%
- viability, T/C [16]: 98.1%
- viability, T/C [17]: 78.4%
- viability, T/C [18]: 51.9%
- viability, T/C [19]: 104%
- viability, T/C [20]: 113%
- viability, T/C [21]: 105%
- viability, T/C [22]: 89.1%
- viability, T/C [23]: 92.6%
- viability, T/C [24]: 48.9%
- viability, T/C [25]: 134%
- viability, T/C [26]: 107%
- viability, T/C [27]: 100%
- viability, T/C [28]: 100%
- viability, T/C [29]: 76.6%
- viability, T/C [30]: 43.9%

Compound: Nc1ccccc1NC(=O)c1ccc(CNC(=O)OCc2cccnc2)cc1 + NC1CCC(NC2CC2c2ccccc2)CC1
- IC50 (second compound 0.1 µM): 0.932 µM
- IC50 (second compound 0.316 µM): > 3 µM
- IC50 (second compound 1 µM): 1.43 µM
- IC50 (second compound 3.16 µM): 1.78 µM
- IC50 (second compound 10 µM): 1.27 µM
- viability, T/C (second compound 0.1 µM, first compound 0.00949 µM): 96.2%
- viability, T/C (second compound 0.1 µM, first compound 0.03 µM): 89.4%
- viability, T/C (second compound 0.1 µM, first compound 0.0949 µM): 83.7%
- viability, T/C (second compound 0.1 µM, first compound 0.3 µM): 85.4%
- viability, T/C (second compound 0.1 µM, first compound 0.949 µM): 49.3%
- viability, T/C (second compound 0.1 µM, first compound 3 µM): 31.2%
- viability, T/C (second compound 0.316 µM, first compound 0.00949 µM): 116%
- viability, T/C (second compound 0.316 µM, first compound 0.03 µM): 92.2%
- viability, T/C (second compound 0.316 µM, first compound 0.0949 µM): 88.2%
- viability, T/C (second compound 0.316 µM, first compound 0.3 µM): 82.8%
- viability, T/C (second compound 0.316 µM, first compound 0.949 µM): 61.6%
- viability, T/C (second compound 0.316 µM, first compound 3 µM): 52.8%
- viability, T/C (second compound 1 µM, first compound 0.00949 µM): 107%
- viability, T/C (second compound 1 µM, first compound 0.03 µM): 94.8%
- viability, T/C (second compound 1 µM, first compound 0.0949 µM): 88.9%
- viability, T/C (second compound 1 µM, first compound 0.3 µM): 82.9%
- viability, T/C (second compound 1 µM, first compound 0.949 µM): 54.4%
- viability, T/C (second compound 1 µM, first compound 3 µM): 36.2%
- viability, T/C (second compound 3.16 µM, first compound 0.00949 µM): 113%
- viability, T/C (second compound 3.16 µM, first compound 0.03 µM): 97.4%
- viability, T/C (second compound 3.16 µM, first compound 0.0949 µM): 97%
- viability, T/C (second compound 3.16 µM, first compound 0.3 µM): 80.5%
- viability, T/C (second compound 3.16 µM, first compound 0.949 µM): 59.4%
- viability, T/C (second compound 3.16 µM, first compound 3 µM): 41%
- viability, T/C (second compound 10 µM, first compound 0.00949 µM): 107%
- viability, T/C (second compound 10 µM, first compound 0.03 µM): 109%
- viability, T/C (second compound 10 µM, first compound 0.0949 µM): 87.9%
- viability, T/C (second compound 10 µM, first compound 0.3 µM): 79.8%
- viability, T/C (second compound 10 µM, first compound 0.949 µM): 57.1%
- viability, T/C (second compound 10 µM, first compound 3 µM): 29.3%

Compound: O=C(c1cc(Cc2n[nH]c(=O)c3ccccc23)ccc1F)N1CCN(C(=O)C2CC2)CC1 + NC1CCC(NC2CC2c2ccccc2)CC1
- IC50 (second compound 0.1 µM): > 10 µM
- IC50 (second compound 0.316 µM): > 10 µM
- IC50 (second compound 1 µM): > 10 µM
- IC50 (second compound 3.16 µM): > 10 µM
- IC50 (second compound 10 µM): > 10 µM
- viability, T/C [5]: 112%
- viability, T/C [6]: 111%
- viability, T/C (second compound 0.1 µM, first compound 0.316 µM): 101%
- viability, T/C (second compound 0.1 µM, first compound 1 µM): 101%
- viability, T/C (second compound 0.1 µM, first compound 3.16 µM): 110%
- viability, T/C (second compound 0.1 µM, first compound 10 µM): 106%
- viability, T/C [11]: 104%
- viability, T/C [12]: 106%
- viability, T/C (second compound 0.316 µM, first compound 0.316 µM): 120%
- viability, T/C (second compound 0.316 µM, first compound 1 µM): 107%
- viability, T/C (second compound 0.316 µM, first compound 3.16 µM): 124%
- viability, T/C (second compound 0.316 µM, first compound 10 µM): 100%
- viability, T/C [17]: 114%
- viability, T/C [18]: 100%
- viability, T/C (second compound 1 µM, first compound 0.316 µM): 106%
- viability, T/C (second compound 1 µM, first compound 1 µM): 110%
- viability, T/C (second compound 1 µM, first compound 3.16 µM): 111%
- viability, T/C (second compound 1 µM, first compound 10 µM): 108%
- viability, T/C [23]: 117%
- viability, T/C [24]: 129%
- viability, T/C (second compound 3.16 µM, first compound 0.316 µM): 120%
- viability, T/C (second compound 3.16 µM, first compound 1 µM): 98.8%
- viability, T/C (second compound 3.16 µM, first compound 3.16 µM): 100%
- viability, T/C (second compound 3.16 µM, first compound 10 µM): 113%
- viability, T/C [29]: 108%
- viability, T/C [30]: 116%
- viability, T/C (second compound 10 µM, first compound 0.316 µM): 110%
- viability, T/C (second compound 10 µM, first compound 1 µM): 119%
- viability, T/C (second compound 10 µM, first compound 3.16 µM): 116%
- viability, T/C (second compound 10 µM, first compound 10 µM): 89%
